16 compounds from patent US10961231B2, “NTCP inhibitors” (National Institute of Biological Sciences, Beijing, priority 2018, dated 2021) can be followed below.

In the first test the target is T1, NTCP (Homo sapiens, UniProt Q14973).
T1 sequence (Q14973 1-349): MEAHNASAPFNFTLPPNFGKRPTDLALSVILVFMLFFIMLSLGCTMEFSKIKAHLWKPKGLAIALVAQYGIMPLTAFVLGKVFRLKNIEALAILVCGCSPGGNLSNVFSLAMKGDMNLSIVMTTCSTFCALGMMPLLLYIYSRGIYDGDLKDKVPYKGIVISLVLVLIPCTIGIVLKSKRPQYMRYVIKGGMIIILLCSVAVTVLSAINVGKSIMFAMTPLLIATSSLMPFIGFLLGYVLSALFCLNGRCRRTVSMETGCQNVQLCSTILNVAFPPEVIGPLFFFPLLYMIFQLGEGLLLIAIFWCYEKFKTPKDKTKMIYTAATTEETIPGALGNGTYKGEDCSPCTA
As to the kind of experiment: [3H]-TCA uptake assay (NTCP inhibition). In kind it is cell-based. The settings on record: IC50, given as a range, marked * (asterisk not explained). Summed up: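 PTH and HepG2-NTCP cells kept 24 h in PMM to induce NTCP, then exposed 2 h to test compounds or DMSO. Uptake of 1 μM [3H]-taurocholate in Na+ Ringer's buffer (145 mM Na) ran 15 min at 37° C. Cells washed, lysed in 1% Triton X-100, and radioactivity counted by liquid scintillation.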
As a reminder, the IC50 is the point on the concentration scale where inhibition reaches its midpoint. Read a low IC50 as higher potency. `CCC1NC(=O)C(C2OC(Oc3ccc(Cl)c(OC)c3)CC2C)N(C)C(=O)C(C(C)C)N(C)C(=O)C(CC(C)C)N(C)C(=O)C(CC(C)C)N(C)C(=O)C(C)NC(=O)C(C)NC(=O)C(CC(C)C)N(C)C(=O)C(C(C)C)NC(=O)C(CC(C)C)N(C)C(=O)CN(C)C1=O` (stereo not shown) [Compound 40A-o] showed an IC50 of 1 to 100 µM.

`CCOc1cc(OC2CC(C)C(C3C(=O)NC(CC)C(=O)N(C)CC(=O)N(C)C(CC(C)C)C(=O)NC(C(C)C)C(=O)N(C)C(CC(C)C)C(=O)NC(C)C(=O)NC(C)C(=O)N(C)C(CC(C)C)C(=O)N(C)C(CC(C)C)C(=O)N(C)C(C(C)C)C(=O)N3C)O2)ccc1Cl` (stereo not shown) [Compound 41A-o] gave an IC50 of 1 to 100 µM.

`CCCOc1cc(OC2CC(C)C(C3C(=O)NC(CC)C(=O)N(C)CC(=O)N(C)C(CC(C)C)C(=O)NC(C(C)C)C(=O)N(C)C(CC(C)C)C(=O)NC(C)C(=O)NC(C)C(=O)N(C)C(CC(C)C)C(=O)N(C)C(CC(C)C)C(=O)N(C)C(C(C)C)C(=O)N3C)O2)ccc1Cl` (stereo not shown) [Compound 42A-o]: the IC50 fell in the range of 1 to 100 µM.

On to `CCC1NC(=O)C(C2OC(Oc3ccc(Cl)c(OCC4CCOCC4)c3)CC2C)N(C)C(=O)C(C(C)C)N(C)C(=O)C(CC(C)C)N(C)C(=O)C(CC(C)C)N(C)C(=O)C(C)NC(=O)C(C)NC(=O)C(CC(C)C)N(C)C(=O)C(C(C)C)NC(=O)C(CC(C)C)N(C)C(=O)CN(C)C1=O` (stereo not shown) [Compound 43A-o], for which the IC50 was in the range of 1 to 100 µM.

Consider `CCC1NC(=O)C(C2OC(Oc3ccc(Cl)c(OCc4ccccc4)c3)CC2C)N(C)C(=O)C(C(C)C)N(C)C(=O)C(CC(C)C)N(C)C(=O)C(CC(C)C)N(C)C(=O)C(C)NC(=O)C(C)NC(=O)C(CC(C)C)N(C)C(=O)C(C(C)C)NC(=O)C(CC(C)C)N(C)C(=O)CN(C)C1=O` (stereo not shown) [Compound 44A-o], for which the IC50 lay in the range of 1 to 100 µM.

`CCC1NC(=O)C(C2OC(Oc3ccc(Cl)c(OCCOC)c3)CC2C)N(C)C(=O)C(C(C)C)N(C)C(=O)C(CC(C)C)N(C)C(=O)C(CC(C)C)N(C)C(=O)C(C)NC(=O)C(C)NC(=O)C(CC(C)C)N(C)C(=O)C(C(C)C)NC(=O)C(CC(C)C)N(C)C(=O)CN(C)C1=O` (stereo not shown) [Compound 45A-o]: the IC50 fell in the range of 1 to 100 µM.

`CCC1NC(=O)C(C2OC(Oc3ccc(Cl)c(OCCO)c3)CC2C)N(C)C(=O)C(C(C)C)N(C)C(=O)C(CC(C)C)N(C)C(=O)C(CC(C)C)N(C)C(=O)C(C)NC(=O)C(C)NC(=O)C(CC(C)C)N(C)C(=O)C(C(C)C)NC(=O)C(CC(C)C)N(C)C(=O)CN(C)C1=O` (stereo not shown) [Compound 46A-o] had an IC50 of 1 to 100 µM.

`CCC1NC(=O)C(C2OC(Oc3cccc(NC)c3)CC2C)N(C)C(=O)C(C(C)C)N(C)C(=O)C(CC(C)C)N(C)C(=O)C(CC(C)C)N(C)C(=O)C(C)NC(=O)C(C)NC(=O)C(CC(C)C)N(C)C(=O)C(C(C)C)NC(=O)C(CC(C)C)N(C)C(=O)CN(C)C1=O` (stereo not shown) [Compound 47A-o]: the IC50 was 1 to 100 µM.

The test is the same for the next values; noted with them: given as a range; assay not given.
Turning to `CCC1NC(=O)C(C2OC(Sc3ccc(Cl)c(OC)c3)CC2C)N(C)C(=O)C(C(C)C)N(C)C(=O)C(CC(C)C)N(C)C(=O)C(CC(C)C)N(C)C(=O)C(C)NC(=O)C(C)NC(=O)C(CC(C)C)N(C)C(=O)C(C(C)C)NC(=O)C(CC(C)C)N(C)C(=O)CN(C)C1=O` [Compound 40A, [2-((2R,3R)-5-(4-chloro-3-methoxyphenylthio)-3-methyltetrahydrofuran-2-yl)-2-(methylamino)acetic acid]^1-cyclosporin A], the IC50 lay within 0.001 to 1 µM.

`CCOc1cc(SC2CC(C)C(C3C(=O)NC(CC)C(=O)N(C)CC(=O)N(C)C(CC(C)C)C(=O)NC(C(C)C)C(=O)N(C)C(CC(C)C)C(=O)NC(C)C(=O)NC(C)C(=O)N(C)C(CC(C)C)C(=O)N(C)C(CC(C)C)C(=O)N(C)C(C(C)C)C(=O)N3C)O2)ccc1Cl` [Compound 41A, [2-((2R,3R)-5-(4-chloro-3-ethoxyphenylthio)-3-methyltetrahydrofuran-2-yl)-2-(methylamino)acetic acid]^1-cyclosporin A] displayed an IC50 of 0.001 to 1 µM.

In turn, `CCCOc1cc(SC2CC(C)C(C3C(=O)NC(CC)C(=O)N(C)CC(=O)N(C)C(CC(C)C)C(=O)NC(C(C)C)C(=O)N(C)C(CC(C)C)C(=O)NC(C)C(=O)NC(C)C(=O)N(C)C(CC(C)C)C(=O)N(C)C(CC(C)C)C(=O)N(C)C(C(C)C)C(=O)N3C)O2)ccc1Cl` [Compound 42A, [2-((2R,3R)-5-(4-chloro-3-propoxyphenylthio)-3-methyltetrahydrofuran-2-yl)-2-(methylamino)acetic acid]^1-cyclosporin A] displayed an IC50 of 0.001 to 1 µM.

In turn, `CCC1NC(=O)C(C2OC(Sc3ccc(Cl)c(OCC4CCOCC4)c3)CC2C)N(C)C(=O)C(C(C)C)N(C)C(=O)C(CC(C)C)N(C)C(=O)C(CC(C)C)N(C)C(=O)C(C)NC(=O)C(C)NC(=O)C(CC(C)C)N(C)C(=O)C(C(C)C)NC(=O)C(CC(C)C)N(C)C(=O)CN(C)C1=O` [Compound 43A, [2-((2R,3R)-5-(4-chloro-3-((tetrahydro-2H-pyran-4-yl)methoxy)phenylthio)-3-methyltetrahydrofuran-2-yl)-2-(methylamino)acetic acid]^1-cyclosporin A] had an IC50 of 0.001 to 1 µM.

The compound `CCC1NC(=O)C(C2OC(Sc3ccc(Cl)c(OCc4ccccc4)c3)CC2C)N(C)C(=O)C(C(C)C)N(C)C(=O)C(CC(C)C)N(C)C(=O)C(CC(C)C)N(C)C(=O)C(C)NC(=O)C(C)NC(=O)C(CC(C)C)N(C)C(=O)C(C(C)C)NC(=O)C(CC(C)C)N(C)C(=O)CN(C)C1=O` [Compound 44A, [2-((2R,3R)-5-(3-(benzyloxy)-4-chlorophenylthio)-3-methyltetrahydrofuran-2-yl)-2-(methylamino)acetic acid]^1-cyclosporin A] returned an IC50 of 0.001 to 1 µM.

`CCC1NC(=O)C(C2OC(Sc3ccc(Cl)c(OCCOC)c3)CC2C)N(C)C(=O)C(C(C)C)N(C)C(=O)C(CC(C)C)N(C)C(=O)C(CC(C)C)N(C)C(=O)C(C)NC(=O)C(C)NC(=O)C(CC(C)C)N(C)C(=O)C(C(C)C)NC(=O)C(CC(C)C)N(C)C(=O)CN(C)C1=O` [Compound 45A, [2-((2R,3R)-5-(4-chloro-3-(2-methoxyethoxy)phenylthio)-3-methyltetrahydrofuran-2-yl)-2-(methylamino)acetic acid]^1-cyclosporin A] gave an IC50 of 0.001 to 1 µM.

Turning to `CCC1NC(=O)C(C2OC(Sc3ccc(Cl)c(OCCO)c3)CC2C)N(C)C(=O)C(C(C)C)N(C)C(=O)C(CC(C)C)N(C)C(=O)C(CC(C)C)N(C)C(=O)C(C)NC(=O)C(C)NC(=O)C(CC(C)C)N(C)C(=O)C(C(C)C)NC(=O)C(CC(C)C)N(C)C(=O)CN(C)C1=O` [Compound 46A, [2-((2R,3R)-5-(4-chloro-3-(2-hydroxyethoxy)phenylthio)-3-methyltetrahydrofuran-2-yl)-2-(methylamino)acetic acid]^1-cyclosporin A], the IC50 lay in the range of 0.001 to 1 µM.

As to `CCC1NC(=O)C(C2OC(Sc3cccc(NC)c3)CC2C)N(C)C(=O)C(C(C)C)N(C)C(=O)C(CC(C)C)N(C)C(=O)C(CC(C)C)N(C)C(=O)C(C)NC(=O)C(C)NC(=O)C(CC(C)C)N(C)C(=O)C(C(C)C)NC(=O)C(CC(C)C)N(C)C(=O)CN(C)C1=O` [Compound 47A, [2-((2R,3R)-3-methyl-5-(3-(methylamino)phenylthio)tetrahydrofuran-2-yl)-2-(methylamino)acetic acid]^1-cyclosporin A], the IC50 is 0.001 to 1 µM.
